In brackets after ≈: the same amount, converted by molar mass.
Key:
Bacillus subtilis [1] = test: Antibacterial activity against Bacillus subtilis ATCC 6051 incubated for 24 hrs by broth microdilution method; format: functional
Escherichia coli [2] = test: Antibacterial activity against Escherichia coli ATCC 25922 incubated for 24 hrs by broth microdilution method; format: functional
Pseudomonas aeruginosa [3] = test: Antibacterial activity against Pseudomonas aeruginosa ATCC 25619 incubated for 24 hrs by broth microdilution method; format: functional
Staphylococcus aureus [4] = test: Antibacterial activity against Staphylococcus aureus ATCC 12598 incubated for 24 hrs by broth microdilution method; format: functional
Candida albicans = test: Antifungal activity against Candida albicans ATCC 2091 incubated for 24 hrs by broth microdilution method; format: functional
Aspergillus niger = test: Antibacterial activity against Aspergillus niger ATCC 9029 incubated for 24 hrs by broth microdilution method; format: functional
Bacillus subtilis [5] = test: Antibacterial activity against Bacillus subtilis assessed as inhibition zone at 1 mg/ml measured after overnight incubation by disc diffusion method; format: functional; settings: read-out: IZ
Staphylococcus aureus [6] = test: Antibacterial activity against Staphylococcus aureus assessed as inhibition zone at 1 mg/ml measured after overnight incubation by disc diffusion method; format: functional; settings: read-out: IZ
Pseudomonas aeruginosa [7] = test: Antibacterial activity against Pseudomonas aeruginosa assessed as inhibition zone at 1 mg/ml measured after overnight incubation by disc diffusion method; format: functional; settings: read-out: IZ
Escherichia coli [8] = test: Antibacterial activity against Escherichia coli assessed as inhibition zone at 1 mg/ml measured after overnight incubation by disc diffusion method; format: functional; settings: read-out: IZ
Bacillus cereus = test: Antibacterial activity against Bacillus cereus; format: functional
Staphylococcus aureus [9] = test: Antibacterial activity against Staphylococcus aureus; format: functional
KB = test: Cytotoxicity against human KB cells; format: cell-based; settings: Homo sapiens, KB

Row | Compound | MIC (Bacillus subtilis [1]) [µg/mL] | MIC (Escherichia coli [2]) [µg/mL] | MIC (Pseudomonas aeruginosa [3]) [µg/mL] | MIC (Staphylococcus aureus [4]) [µg/mL] | MIC (Candida albicans) [µg/mL] | MIC (Aspergillus niger) [µg/mL] | zone of inhibition at 1000 µg/mL (Bacillus subtilis [5]) [mm] | zone of inhibition at 1000 µg/mL (Staphylococcus aureus [6]) [mm] | zone of inhibition at 1000 µg/mL (Pseudomonas aeruginosa [7]) [mm] | zone of inhibition at 1000 µg/mL (Escherichia coli [8]) [mm] | MIC (Bacillus cereus) [µg/mL] | MIC (Staphylococcus aureus [9]) [µg/mL] | IC50 (KB) [µg/mL]
1 | Cc1nnn(Cc2cc(=O)oc3ccc4c(c23)OCO4)c1C(=O)O | 25 (≈ 75.9 µM) | 0.2 (≈ 0.607 µM) | 25 (≈ 75.9 µM) | 0.2 (≈ 0.607 µM) | 0.2 (≈ 0.607 µM) | 0.2 (≈ 0.607 µM) |  |  |  |  |  |  | 
2 | Clc1ccc(-n2cc(CNc3ccccc3-c3nnc(-c4ccccc4)o3)nn2)cc1 |  |  |  |  |  |  | 2.5 | 2.5 | 2.5 | 2.5 |  |  | 
3 | CC(=O)C(C)(C)C(=O)N1CC[C@@H](C(=O)NC(C)(C)C(=O)N[C@@H](C)C(=O)NC(C)(C)C(=O)N[C@@H](C)C(=O)N[C@@H](CCC(N)=O)C(=O)NC(C)(C)C(=O)N[C@H](C(=O)NC(C)(C)C(=O)NCC(=O)N[C@@H](CC(C)C)C(=O)NC(C)(C)C(=O)N2CCC[C@@H]2C(=O)N[C@H](C(=O)NC(C)(C)C(=O)NC(C)(C)C(=O)N[C@@H](CCC(N)=O)C(=O)N[C@@H](CCC(N)=O)C(=O)N[C@H](CO)Cc2ccccc2)C(C)C)C(C)C)C1 |  |  |  |  |  |  |  |  |  |  | 1.56 (≈ 0.801 µM) | 1.56 (≈ 0.801 µM) | 1.56 (≈ 0.801 µM)
4 | N#Cc1c(N)nnn1Cc1cc(=O)oc2c3c(ccc12)OCO3 | 25 (≈ 80.3 µM) | 0.2 (≈ 0.643 µM) | 25 (≈ 80.3 µM) | 0.2 (≈ 0.643 µM) | 0.2 (≈ 0.643 µM) | 0.2 (≈ 0.643 µM) |  |  |  |  |  |  | 
5 | Cc1ccc(-n2cc(CNc3ccccc3-c3nnc(-c4ccccc4)o3)nn2)cc1 |  |  |  |  |  |  | 2.5 | 2.5 | 2.5 | 2.5 |  |  | 
6 | Clc1cccc(-n2cc(CNc3ccccc3-c3nnc(-c4ccccc4)o3)nn2)c1 |  |  |  |  |  |  | 2.5 | 2.5 | 2.5 | 2.5 |  |  | 
7 | Cc1ccc2c(Cn3nnc(C)c3C(=O)O)cc(=O)oc2c1 | 25 (≈ 83.5 µM) | 0.2 (≈ 0.668 µM) | 25 (≈ 83.5 µM) | 0.2 (≈ 0.668 µM) | 0.2 (≈ 0.668 µM) | 0.2 (≈ 0.668 µM) |  |  |  |  |  |  | 
8 | CN[C@@H]1[C@H](O[C@H]2[C@H](O[C@H]3[C@H](O)[C@@H](O)[C@H](N=C(N)N)[C@@H](O)[C@@H]3N=C(N)N)O[C@@H](C)[C@]2(O)C=O)O[C@@H](CO)[C@H](O)[C@H]1O [STREPTOMYCIN] | 2 (≈ 3.44 µM) | 2 (≈ 3.44 µM) | 4 (≈ 6.88 µM) | 2 (≈ 3.44 µM) |  |  |  |  |  |  |  |  | 
9 | COc1ccc2oc(=O)cc(Cn3nnc(C)c3C(=O)O)c2c1 | 25 (≈ 79.3 µM) | 0.2 (≈ 0.634 µM) | 25 (≈ 79.3 µM) | 0.2 (≈ 0.634 µM) | 0.2 (≈ 0.634 µM) | 0.2 (≈ 0.634 µM) |  |  |  |  |  |  | 
10 | CCOC(=O)c1c(C)nnn1Cc1cc(=O)oc2cc(C)ccc12 | 25 (≈ 76.4 µM) | 0.2 (≈ 0.611 µM) | 25 (≈ 76.4 µM) | 0.2 (≈ 0.611 µM) | 0.2 (≈ 0.611 µM) | 0.2 (≈ 0.611 µM) |  |  |  |  |  |  | 
11 | O=[N+]([O-])c1cccc(-n2cc(CNc3ccccc3-c3nnc(-c4ccccc4)o3)nn2)c1 |  |  |  |  |  |  | 2.5 | 2.5 | 2.5 | 2.5 |  |  | 
12 | c1ccc(-c2nnc(-c3ccccc3NCc3cn(C4CCCCC4)nn3)o2)cc1 |  |  |  |  |  |  | 2.5 | 2.5 | 2.5 | 2.5 |  |  | 
13 | CC1COc2c(N3CCN(C)CC3)c(F)cc3c(=O)c(C(=O)O)cn1c23 (stereo unspecified) [OFLOXACIN] |  |  |  |  |  |  | 2.5 | 2.5 | 2.5 | 2.5 |  |  | 
14 | N#Cc1c(N)nnn1Cc1cc(=O)oc2ccc3c(c12)OCO3 | 25 (≈ 80.3 µM) | 0.2 (≈ 0.643 µM) | 25 (≈ 80.3 µM) | 0.2 (≈ 0.643 µM) | 0.2 (≈ 0.643 µM) | 0.2 (≈ 0.643 µM) |  |  |  |  |  |  | 
15 | CCOC(=O)c1c(C)nnn1Cc1cc(=O)oc2c3c(ccc12)OCO3 | 25 (≈ 70 µM) | 0.2 (≈ 0.56 µM) | 25 (≈ 70 µM) | 0.2 (≈ 0.56 µM) | 0.2 (≈ 0.56 µM) | 0.2 (≈ 0.56 µM) |  |  |  |  |  |  | 
16 | Fc1ccccc1-n1cc(CNc2ccccc2-c2nnc(-c3ccccc3)o2)nn1 |  |  |  |  |  |  | 2.5 | 2.5 | 2.5 | 2.5 |  |  | 
17 | COc1ccccc1-n1cc(CNc2ccccc2-c2nnc(-c3ccccc3)o2)nn1 |  |  |  |  |  |  | 2.5 | 2.5 | 2.5 | 2.5 |  |  | 
18 | CCOC(=O)c1c(C)nnn1Cc1cc(=O)oc2ccc(C)cc12 | 25 (≈ 76.4 µM) | 0.4 (≈ 1.22 µM) | 25 (≈ 76.4 µM) | 0.2 (≈ 0.611 µM) | 0.2 (≈ 0.611 µM) | 0.2 (≈ 0.611 µM) |  |  |  |  |  |  | 
19 | COc1ccc(-n2cc(CNc3ccccc3-c3nnc(-c4ccccc4)o3)nn2)c([N+](=O)[O-])c1 |  |  |  |  |  |  | 2.5 | 2.5 | 2.5 | 2.5 |  |  | 

From ChEMBL document CHEMBL4699440, “Comprehensive review on the anti-bacterial activity of 1,2,3-triazole hybrids” (Eur J Med Chem, 2019)
